Measured values published in PMC8224775, “Five Tetramic Acid Derivatives Isolated from the Iranian Fungus Colpoma quercinum CCTU A372” (Biomolecules, 2021).
Converted amounts (≈) assume the structure as drawn. Marks after values point to notes of the source that are not given here. One block for each molecule: values may come before it.

Experiments:
[1] = tested on: Acinetobacter baumanii DSM 30008; experiment: Antimicrobial serial dilution assay (MIC); format: cell-based; details: Acinetobacter baumannii, DSM30008, serial dilution 67 to 0.5 µg/mL, overnight, read-out: MIC
Protocol: (§1) Antimicrobial activity was determined by our established protocol, according to Becker et al.. In general, all of the pure compounds were dissolved in MeOH with a concentration of 1 mg/mL. Assessment of the antimicrobial activity was determined using the serial dilution assay method to calculate the minimum inhibitory concentration (MIC). In this method, the compounds were diluted in a range between 67 and 0.5 µg/mL in 96 well-plate and incubated with the test organism overnight. The next day, growth of the test organisms was visually observed, and MIC was determined in the lowest concentration where a clear zone (no growth of test organism) was observed. In our attempt for novel anti-infective compounds, an established standard protocol using various organisms representing a broad spectrum of pathogens of clinical interest, as well as sensitive indicator strains, was used (bacteria: Bacillus subtilis DSM 10, Staphylococcus aureus DSM 346, Acinetobacter baumanii DSM 30008, Chromobacterium violaceum DSM 30191, Escherichia coli DSM 1116 and Pseudomonas aeruginosa PA14; mycobacteria: Mycobacterium smegmatis ATCC 700084 and fungi: Candida albicans DSM 1665, Schizosaccharomyces pombe DSM 70572, Mucor hiemalis DSM 2656, Wickerhamomyces anomala DSM 6766 and Rhodotorula glutinis DSM 10134). Methanol as a solvent to dissolve the pure compounds was used as the negative control. Oxytetracycline, ciprofloxacin, gentamycin, and kanamycin were used as positive controls against bacteria, whereas nystatin was used against fungi. A detailed experimental procedure can be found in the SI.
(§2) Protocol: Antimicrobial Activity Assay
(§3) The assay was conducted as a minimum inhibitory concentration (MIC) assay in 96-well round- bottom microtiter plates using the parameters summarized in Table S1 and as already described in [S1]. Stocks of the test organisms were generated by growing the organisms overnight in 50 mL shaking flasks filled with 25 mL of the growth medium at 140r p m ( media and temperatures see Table S1). If the organisms were well grown the next day, which was checked by the occurrence of an optical density (OD) […] of the suspension (OD600 nm for bacteria, OD548 nm for fungi and M. smegmatis), aliquots of these were stored in 1.5 mL reaction tubes in a freezer at −80 °C for up to 12 months. Upon use, aliquots were unthawed and the OD of the suspension measured and adjusted by diluting with the respective growth medium. OD600 nm was adjusted to 0.01 and OD548 nm to 0.1. Subsequently, 150 μ L of the adj usted suspensions were added to all wells of a 96-well microtiter plate (one test organism per plate). In row A, additional 130 μ L of suspensions plus 20 μ L of the test compounds (1 mg/mL) and the controls (one compound/column) were added. MeOH was used as negative controls, while different positive controls (references) were used for the test organisms (see Table S1). Then, starting from row A, 150 μ L of t he suspension were transferred to the next row, the contents thoroughly mixed, and 150 μ L transferred to the following row. The remaining 150 μ L after row H were discarded. […]
(§4) of the test compounds, ranging from 66.7 μg/mL in row A to 0.52 μ g/mL in row H. The microtiter plates were then incubated overnight on a microplate shaker at 800 rpm at 30 or 37 °C (see Table S1) and were visually evaluated the next day. The MIC is defined as the lowest concentration where no growth of the test organism (clear zone) was observed. A lower MIC thus corresponds to a higher antimicrobial activity of the test compound.
(§5) Table S1: MIC assay experiment parameters test organism strain No growth incubation positive control […]
(§6) Candidaa lbicans DSM1665 MYC3 30 nystatin 1.0mg/ mL
(§7) Schizosaccharomyces DSM70572 MYC3 30 nystatin 1.0mg/ mL
(§8) Mucor hiemalis DSM2656 MYC3 30 nystatin 1.0mg/ mL
(§9) Wickerhamomyces DSM6766 MYC3 30 nystatin 1.0mg/ mL
(§10) Rhodotorula glutinis DSM10134 MYC3 30 nystatin 1.0mg/ mL
(§11) 1 MHB: Müller-Hinton Broth (SN X927.1, CarlRoth GmbH, Karlsruhe, Germany) […]

[2] = tested on: human breast adenocarcinoma MCF-7; experiment: 5-day MTT cytotoxicity assay; format: cell-based; details: Homo sapiens, MCF7, 120 h
Protocol: (§12) Cytotoxicity of compounds 1‒5 was initially determined against two cancer cell lines (mouse fibroblasts L-929 and human endocervical adenocarcinoma KB-3.1) by using a 5-day MTT assay according to an established procedure.
(§13) In 96-well flat-bottom microtiter plates, cell lines with serial dilution of the test compounds (final range: 37 to 0.6 × 10^−3 µg/mL) were incubated for five days. After five days, the cells were dyed using 3-(4,5-dimethyl-2-thiazolyl)-2,5-diphenyl-2H-tetrazolium bromide (MTT), which is only converted to its purple formazan derivative by living cells. The half-maximum inhibitory concentration (IC50 in µM) was calculated via the colorimetric method in a microplate reader using absorption at 595 nm. In addition, when an inhibition with an IC50 < 50 µM was observed, other cell lines were subjected to the test compounds to evaluate their further cytotoxicity: PC-3 (human prostate adenocarcinoma), SK-OV-3 (human ovary adenocarcinoma), MCF-7 (human breast adenocarcinoma), A-431 (human squamous carcinoma), and A549 (human lung carcinoma). A detailed procedure, including the colorimetric method to determine the cell viability, can be found in the SI.
(§14) Protocol: Cytotoxicity Assay
(§15) The assay was co nducted in 9 6-well flat -botto m microtiter plates using the parameters summarised in T able S2 and as described in [S2]. Cell l ines L-929 and KB-3.1 were incubated at 37 °C under 10 % CO2 in Gibco™ DMEM medium (T her mo Fisher Scientific, Waltham, M A, USA) supplemented with 10 % FBS. A microtiter plate was filled wit h 120 μ L o f this suspensio n (50,000/mL) in each well. Seperatel y, a nother microti ter plate wa s filled wit h 100 μL of gro wth medium in each well. Then, 50 μ L of the test compound solutions (1 mg/mL) were given to wells of the first column in two replicates (one compound per row). Cells without additives and MeOH were used as nega tive controls. Starting from the first column, 50 μ L of the solutions were gradually transferred to the next column, the contents thoroughly mixed, and 50 μL transferred to the following column. This created a serial dilution of the test compounds ranging from 333 μ g/mL to 1.9×10-3 μg/ mL. T he re mai ni ng 50 μ L after column twelve were discarded. From this microtiter plate, 60 μ L of the solutions fro m 111 μ g/mL to 1.9×10-3 μg/mL we r e give n to t he firs t p late co ntai ni ng 1 2 0 μ L of the cell suspensions (i.e. the highest co ncentration 333 μ g/ mL wa s no t used). T his resul ted in fi nal compo und concentratio ns rangi ng fro m 37 μ g/mL to 0.6×10-3 μg/ mL. After 5 days o f incubatio n under the aforementioned incubatio n conditions, the half maximu m inhibitory co ncentrations (IC50) were deter mined using a colorimetric tetrazolium d ye MT T assa y [S3]. For this, 20 μ L of a 5 mg/mL solution of 3-(4,5-dimethyl-2 -thiazolyl) -2,5-diphenyl-2H-tetrazolium br omide (MTT) were added to each well and incubated for two hours at 37 °C. T hen, the microtiter plate was ce ntrifuged (3,000 rpm, 5 min) and the supernatant removed by holding the plate upside-down and gentle shaking. Afterwards, the wells were washed using 100 μ L of phosphate buffered saline (PBS). T he plate was a gain ce ntrifuged a nd the supernata nt re mo ved as described before.
(§16) T hen, 1 0 0 μ L of an isopropanol:HCl solution (1L isopropanol+4 mL HCl 37 % w/v) were added to the wells. After incubating for 10 min at ambient temperature, the absorption of the wells at 595 nm was measured with an Infinite® 200 Pro microplate reader (TECAN, Männedorf, Schweiz). The absorption values of the cells without additives were averaged and set to 100 % cell viability. Then, the means of absorption of the two compound replicates were set in relation to the blank media. T hese percentage values were plotted against the concentratio n range (37 μ g/mL to 0.6×10−3 μg/ mL). T he IC50 value was r ead fro m the plot (in μ g/ mL) a nd the uni ts conversed […]
to μM. […]

[3] = tested on: human lung carcinoma A-549; experiment: 5-day MTT cytotoxicity assay; format: cell-based; details: A549, 120 h
Protocol: as §12, §13, §14, §15, §16
to μM. […]

[4] = tested on: human prostate cancer PC-3; experiment: 5-day MTT cytotoxicity assay; format: cell-based; details: 120 h
Protocol: as §12, §13, §14, §15, §16
to μM. […]

mouse fibroblast L-929 = experiment: 5-day MTT cytotoxicity assay; format: cell-based; details: Mus musculus, L929, 120 h
Protocol: as §12, §13, §14, §15, §16
to μM. […]

[5] = tested on: endocervical adenocarcinoma KB-3.1; experiment: 5-day MTT cytotoxicity assay; format: cell-based, human; details: Homo sapiens, KB 3-1, 120 h
Protocol: as §12, §13, §14, §15, §16
to μM. […]

[6] = tested on: ovarian carcinoma SK-OV-3; experiment: 5-day MTT cytotoxicity assay; format: cell-based, human; details: Homo sapiens, SK-OV-3, 120 h
Protocol: as §12, §13, §14, §15, §16
to μM. […]

[7] = tested on: squamous cell carcinoma A-431; experiment: 5-day MTT cytotoxicity assay; format: cell-based, human; details: Homo sapiens, A-431, 120 h
Protocol: as §12, §13, §14, §15, §16
to μM. […]

Mucor hiemalis DSM 2656 = experiment: Antimicrobial serial dilution assay (MIC); format: cell-based; details: serial dilution 67 to 0.5 µg/mL, overnight
Protocol: as §1, §2, §3, §4, §5, §6, §7, §8, §9, §10, §11

Pichia anomala DSM 6766 = experiment: Antimicrobial serial dilution assay (MIC); format: cell-based; details: serial dilution 67 to 0.5 µg/mL, overnight
Protocol: as §1, §2, §3, §4, §5, §6, §7, §8, §9, §10, §11

[8] = tested on: Rhodotorula glutinis DSM 10134; experiment: Antimicrobial serial dilution assay (MIC); format: cell-based; details: serial dilution 67 to 0.5 µg/mL, overnight
Protocol: as §1, §2, §3, §4, §5, §6, §7, §8, §9, §10, §11

Bacillus subtilis DSM 10 = experiment: Antimicrobial serial dilution assay (MIC); format: cell-based; details: DSM10, serial dilution 67 to 0.5 µg/mL, overnight, read-out: MIC
Protocol: as §1, §2, §3, §4
Table S1: MIC assay experiment parameters test organism strain No growth incubation positive control
Bacillus subtilis DSM10 MHB1 30 oxytetracyclin 1.0mg/ mL […]
as §6, §7, §8, §9
(§17) Rhodotorula glutinis DSM10134 MYC3 30 nystatin 1.0mg/ mL […]

[9] = tested on: Staphylococcus aureus DSM 346; experiment: Antimicrobial serial dilution assay (MIC); format: cell-based; details: DSM346, serial dilution 67 to 0.5 µg/mL, overnight, read-out: MIC
Protocol: as §1, §2, §3
as §4, with “A lower MIC thus corresponds to a higher antimicrobial activity of the test compound.” left out

Escherichia coli = experiment: Antimicrobial serial dilution assay (MIC); format: cell-based; details: serial dilution 67 to 0.5 µg/mL, overnight, read-out: MIC
Protocol: as §1, §2, §3, §4, §5
Escherichia coli DSM1116 MHB1 37 oxytetracyclin 1.0mg/ mL […]
as §6, §7, §8, §9, §17

MIC [1]: 0.26 µg/mL (≈ 0.785 µM)
Compound: O=C(O)c1cn(C2CC2)c2cc(N3CCNCC3)c(F)cc2c1=O [ciprofloxacin, reference compound]

Compound: C/C(=C\c1csc(C)n1)[C@@H]1C[C@@H]2O[C@]2(C)CCC[C@H](C)[C@H](O)[C@@H](C)C(=O)C(C)(C)[C@@H](O)CC(=O)O1 [epothilone B, reference compound]
IC50 [2]: 0.071 nM
IC50 [3]: 0.055 nM
IC50 [4]: 0.27 nM
IC50 (mouse fibroblast L-929): 0.83 nM
IC50 [5]: 0.053 nM
IC50 [6]: 0.24 nM
IC50 [7]: 0.083 nM

Compound: C[C@@H]1[C@H](O)[C@@H](C)/C=C/C=C/CC/C=C/C=C/C=C/C=C/C(O[C@H]2O[C@H](C)[C@@H](O)[C@H](N)[C@@H]2O)CC2O[C@](O)(CC(O)C(O)CCC(O)CC(O)CC(O)CC(=O)O[C@H]1C)CC(O)C2C(=O)O (some centres unmarked) [nystatin, reference compound]
MIC (Mucor hiemalis DSM 2656): 4.2 ^b µg/mL
MIC (Pichia anomala DSM 6766): 4.2 ^b µg/mL
MIC [8]: 1.0 ^b µg/mL

MIC (Bacillus subtilis DSM 10): 8.3 µg/mL (≈ 18 µM)
MIC [9]: 1.7 µg/mL (≈ 3.69 µM)
MIC (Escherichia coli): 1.7 µg/mL (≈ 3.69 µM)
Compound: CN(C)[C@@H]1C(O)=C(C(N)=O)C(=O)[C@@]2(O)C(O)=C3C(=O)c4c(O)cccc4[C@@](C)(O)[C@H]3[C@H](O)[C@@H]12 [oxytetracycline, reference compound]
